Source: the NIST ThermoML archive (doi:10.1016/j.jct.2014.10.015)
± gives the expanded uncertainty stated by the source.

Experiment: mn = molality of the nth substance listed, in mol/kg
Conditions: 101.3 kPa, Liquid, Vibrating tube method

O=c1cc[nH]c(=O)[nH]1 [2,4(1H,3H)-pyrimidinedione] + O
mass density [kg/m3]
Conditions | 288.15 K | 298.15 K | 308.15 K | 318.15 K
m1 = 0.00553 | 999.354 ± 0.088 | 997.267 ± 0.089 | 994.275 ± 0.09 | 990.452 ± 0.092
m1 = 0.00878 | – | 997.396 ± 0.089 | – | –
m1 = 0.01162 | 999.599 ± 0.088 | 997.507 ± 0.09 | 994.508 ± 0.09 | 990.68 ± 0.092
m1 = 0.01202 | – | 997.522 ± 0.09 | – | –
m1 = 0.01509 | 999.736 ± 0.088 | 997.643 ± 0.088 | 994.639 ± 0.09 | 990.808 ± 0.091
m1 = 0.01724 | – | 997.727 ± 0.089 | – | –
m1 = 0.01985 | 999.924 ± 0.087 | 997.828 ± 0.088 | 994.818 ± 0.09 | 990.984 ± 0.091
m1 = 0.02348 | – | 997.97 ± 0.089 | – | –
m1 = 0.02387 | – | 997.985 ± 0.089 | – | –
m1 = 0.02487 | – | 998.023 ± 0.088 | – | –
m1 = 0.02578 | 1000.15 ± 0.088 | 998.059 ± 0.089 | 995.038 ± 0.09 | 991.203 ± 0.091
m1 = 0.03026 | 1000.33 ± 0.088 | 998.232 ± 0.088 | 995.205 ± 0.09 | 991.367 ± 0.091

Nc1cc[nH]c(=O)n1 [4-amino-2-hydroxypyrimidine] + O
mass density [kg/m3]
Conditions | 288.15 K | 298.15 K | 308.15 K | 318.15 K
m1 = 0.00616 | 999.374 ± 0.088 | 997.282 ± 0.089 | 994.295 ± 0.09 | 990.472 ± 0.092
m1 = 0.01095 | 999.56 ± 0.088 | 997.461 ± 0.089 | 994.473 ± 0.09 | 990.648 ± 0.092
m1 = 0.01278 | – | 997.529 ± 0.089 | – | –
m1 = 0.01633 | 999.767 ± 0.088 | 997.66 ± 0.088 | 994.67 ± 0.09 | 990.845 ± 0.091
m1 = 0.01855 | – | 997.743 ± 0.089 | – | –
m1 = 0.01892 | – | 997.756 ± 0.089 | – | –
m1 = 0.01961 | 999.894 ± 0.088 | 997.779 ± 0.089 | 994.791 ± 0.09 | 990.964 ± 0.091
m1 = 0.02682 | 1000.17 ± 0.088 | 998.042 ± 0.089 | 995.052 ± 0.09 | 991.228 ± 0.091
m1 = 0.02766 | – | 998.073 ± 0.089 | – | –
m1 = 0.02813 | – | 998.09 ± 0.089 | – | –
m1 = 0.03302 | 1000.4 ± 0.088 | 998.264 ± 0.088 | 995.271 ± 0.09 | 991.452 ± 0.091
m1 = 0.0353 | – | 998.345 ± 0.088 | – | –

Cl.N=C(N)N [guanidine hydrochloride] + O
mass density [kg/m3]
Conditions | m1 = 0.1 | m1 = 0.25 | m1 = 0.5 | m1 = 0.75 | m1 = 1
288.15 K | 1001.93 ± 0.089 | 1006.02 ± 0.091 | 1012.56 ± 0.095 | 1018.77 ± 0.099 | 1024.63 ± 0.1
298.15 K | 999.788 ± 0.088 | 1003.75 ± 0.09 | 1010.1 ± 0.094 | 1016.1 ± 0.097 | 1021.79 ± 0.1
308.15 K | 996.735 ± 0.089 | 1000.63 ± 0.088 | 1006.86 ± 0.092 | 1012.74 ± 0.095 | 1018.36 ± 0.099
318.15 K | 992.885 ± 0.091 | 996.736 ± 0.089 | 1002.87 ± 0.089 | 1008.68 ± 0.093 | 1014.2 ± 0.096

Cc1cn([C@H]2CC(O)[C@@H](CO)O2)c(=O)[nH]c1=O (stereo partly drawn) [thymidine] + O
mass density [kg/m3]
Conditions | m1 = 0.00963 | m1 = 0.01114 | m1 = 0.01478 | m1 = 0.02291 | m1 = 0.02594 | m1 = 0.0288
288.15 K | 999.851 ± 0.18 | 999.964 ± 0.18 | 1000.24 ± 0.18 | 1000.84 ± 0.18 | 1001.06 ± 0.18 | 1001.27 ± 0.18
298.15 K | 997.759 ± 0.18 | 997.871 ± 0.18 | 998.139 ± 0.18 | 998.733 ± 0.18 | 998.954 ± 0.18 | 999.162 ± 0.18
308.15 K | 994.768 ± 0.18 | 994.878 ± 0.18 | 995.142 ± 0.18 | 995.73 ± 0.18 | 995.947 ± 0.18 | 996.152 ± 0.18
318.15 K | 990.937 ± 0.18 | 991.046 ± 0.18 | 991.306 ± 0.18 | 991.881 ± 0.18 | 992.094 ± 0.18 | 992.294 ± 0.18

Cc1c[nH]c(=O)[nH]c1=O [thymine] + O
mass density [kg/m3]
Conditions | m1 = 0.00771 | m1 = 0.01299 | m1 = 0.01771 | m1 = 0.02319 | m1 = 0.02665 | m1 = 0.03315
288.15 K | 999.423 ± 0.088 | 999.622 ± 0.088 | 999.797 ± 0.088 | 1000 ± 0.087 | 1000.13 ± 0.088 | 1000.37 ± 0.088
298.15 K | 997.334 ± 0.089 | 997.53 ± 0.089 | 997.704 ± 0.088 | 997.906 ± 0.088 | 998.033 ± 0.088 | 998.27 ± 0.088
308.15 K | 994.344 ± 0.09 | 994.535 ± 0.09 | 994.705 ± 0.09 | 994.901 ± 0.09 | 995.023 ± 0.09 | 995.252 ± 0.09
318.15 K | 990.518 ± 0.092 | 990.703 ± 0.092 | 990.867 ± 0.091 | 991.055 ± 0.091 | 991.172 ± 0.091 | 991.393 ± 0.091
